Reference: ChEMBL document CHEMBL1201862, “PubChem BioAssay data set” (2004)
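Compound exposure: 48 hours, 5 concentrations, 96-well plates. GI50: concentration for 50% inhibition of growth.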 Activity calls are given as the source filed them. No stated cut-off is given here; in the data, active = GI50 up to about 1.1 µM and inactive = higher.

Legend:
Assay in all cases: growth of human tumour cells (NCI), 48 h
[1] = test system: CAKI-1
[2] = test system: EKVX
[3] = test system: HCC 2998
[4] = test system: HCT-116
[5] = test system: HL-60
[6] = test system: LOX IMVI
[7] = test system: LXFL 529
[8] = test system: M14
[9] = test system: OVCAR-4
[10] = test system: SF-295
[11] = test system: SF-539
[12] = test system: SK-MEL-5
[13] = test system: SK-OV-3
[14] = test system: SNB-75
[15] = test system: TK-10
[16] = test system: UACC-62
[17] = test system: BT-549
[18] = test system: DU-145
[19] = test system: MCF7
[20] = test system: PC-3

Row | Compound | GI50 [1] | GI50 [2] | GI50 [3] | GI50 [4] | GI50 [5] | GI50 [6] | GI50 [7] | GI50 [8] | GI50 [9] | GI50 [10] | GI50 [11] | GI50 [12] | GI50 [13] | GI50 [14] | GI50 [15] | GI50 [16] | GI50 [17] | GI50 [18] | GI50 [19] | GI50 [20]
1 | C[C@]12CC/C(=N\OC(=O)Nc3ccccc3)C=C1CC[C@@H]1C2CC[C@@]2(C)C1CC[C@@H]2OC(=O)Nc1ccccc1 (some centres not stated) | 3.27 µM (inactive) | > 100 µM (inactive) | > 100 µM (inactive) | > 100 µM (inactive) | 8.79 µM (inactive) | > 100 µM (inactive) | 15.5 µM (inactive) | 35.9 µM (inactive) | > 100 µM (inactive) | 47.9 µM (inactive) | > 100 µM (inactive) | 23.1 µM (inactive) | > 100 µM (inactive) | 31.5 µM (inactive) | > 100 µM (inactive) | 59 µM (inactive) | – | – | – | –
2 | O=C(CC1(O)C(=O)Nc2ccccc21)c1ccccc1O (configuration not stated) | > 100 µM (inactive) | > 100 µM (inactive) | – | > 100 µM (inactive) | > 100 µM (inactive) | > 100 µM (inactive) | > 100 µM (inactive) | > 100 µM (inactive) | > 100 µM (inactive) | > 100 µM (inactive) | > 100 µM (inactive) | > 100 µM (inactive) | > 100 µM (inactive) | > 100 µM (inactive) | > 100 µM (inactive) | > 100 µM (inactive) | – | – | – | –
3 | COc1ccc(C(=O)C2CCC(C(=O)O)C2)cc1 (configuration not stated) | > 100 µM (inactive) | > 100 µM (inactive) | > 100 µM (inactive) | > 100 µM (inactive) | > 100 µM (inactive) | > 100 µM (inactive) | > 100 µM (inactive) | > 100 µM (inactive) | > 100 µM (inactive) | > 100 µM (inactive) | > 100 µM (inactive) | > 100 µM (inactive) | > 100 µM (inactive) | > 100 µM (inactive) | > 100 µM (inactive) | > 100 µM (inactive) | – | – | – | –
4 | O=C(OCc1ccccc1)N1N=NC2C1C1CC(OCc3ccccc3)(OCc3ccccc3)C2O1 (configuration not stated) | > 100 µM (inactive) | – | > 100 µM (inactive) | – | > 100 µM (inactive) | > 100 µM (inactive) | > 100 µM (inactive) | > 100 µM (inactive) | > 100 µM (inactive) | > 100 µM (inactive) | > 100 µM (inactive) | > 100 µM (inactive) | > 100 µM (inactive) | > 100 µM (inactive) | – | > 100 µM (inactive) | – | – | – | –
5 | Cc1nc2c(n1C(C)(C)C)C(=O)c1ccccc1C2=O | – | > 100 µM (inactive) | > 100 µM (inactive) | 54 µM (inactive) | 46.2 µM (inactive) | 41.5 µM (inactive) | 67.9 µM (inactive) | > 100 µM (inactive) | 92.9 µM (inactive) | 87.3 µM (inactive) | > 100 µM (inactive) | 38.9 µM (inactive) | > 100 µM (inactive) | 31.9 µM (inactive) | 82 µM (inactive) | 44.3 µM (inactive) | – | – | – | –
6 | O=C1c2ccccc2C(=O)c2c1ccc1c3ccccc3n(Cc3ccccc3)c21 | > 100 µM (inactive) | > 100 µM (inactive) | – | > 100 µM (inactive) | > 100 µM (inactive) | > 100 µM (inactive) | > 100 µM (inactive) | > 100 µM (inactive) | 53.6 µM (inactive) | > 100 µM (inactive) | > 100 µM (inactive) | > 100 µM (inactive) | > 100 µM (inactive) | 2.35 µM (inactive) | – | > 100 µM (inactive) | – | – | – | –
7 | COc1cc2cccc(/N=C/c3c(Br)ccc(OC)c3OC(C)C)c2cc1OC | 27.9 µM (inactive) | > 100 µM (inactive) | 65.3 µM (inactive) | 31 µM (inactive) | – | – | 26.8 µM (inactive) | 27.1 µM (inactive) | 33 µM (inactive) | 53.6 µM (inactive) | 50.6 µM (inactive) | 55.7 µM (inactive) | > 100 µM (inactive) | 24.4 µM (inactive) | 70.8 µM (inactive) | 45.7 µM (inactive) | – | – | – | –
8 | Cc1cc(N(CCC#N)CCC#N)ccc1/C=N\c1ccc(C(=O)NN2C(=O)/C(=C/c3ccc(N(CCC#N)CCC#N)cc3)N=C2c2cc([N+](=O)[O-])ccc2Cl)cc1 | > 100 µM (inactive) | > 100 µM (inactive) | > 100 µM (inactive) | > 100 µM (inactive) | 61.1 µM (inactive) | > 100 µM (inactive) | 71.6 µM (inactive) | 62.7 µM (inactive) | > 100 µM (inactive) | – | > 100 µM (inactive) | 55.3 µM (inactive) | > 100 µM (inactive) | > 100 µM (inactive) | > 100 µM (inactive) | 42.5 µM (inactive) | – | – | – | –
9 | Cc1ccc2c(c1)-c1c(C#N)c(N)nc(-c3ccc(Cl)cc3)c1CCS2(=O)=O | 5.97 µM (inactive) | 20.8 µM (inactive) | 6.7 µM (inactive) | 4.45 µM (inactive) | 0.207 µM (active) | 10.1 µM (inactive) | – | 5.21 µM (inactive) | > 83 µM (inactive) | 4.21 µM (inactive) | 3.77 µM (inactive) | 4.32 µM (inactive) | 8.38 µM (inactive) | 3.21 µM (inactive) | 43.6 µM (inactive) | 4.37 µM (inactive) | 13.6 µM (inactive) | 17.2 µM (inactive) | 5.37 µM (inactive) | 5.48 µM (inactive)
10 | COc1cccc2c1C(=O)c1c(O)c3c(c(O)c1C2=O)C[C@@](O)(/C(C)=N/NC(=O)c1ccc(Cl)c(Cl)c1)C[C@@H]3OC1CC(N)C(O)C(C)O1 (some centres not stated) | 0.0646 µM (active) | 0.904 µM (active) | 0.146 µM (active) | 0.0391 µM (active) | 0.0348 µM (active) | 0.0249 µM (active) | – | 0.148 µM (active) | 0.0668 µM (active) | 0.078 µM (active) | 0.183 µM (active) | 0.116 µM (active) | 0.44 µM (active) | 0.0448 µM (active) | 0.225 µM (active) | 0.11 µM (active) | 0.505 µM (active) | 0.251 µM (active) | 0.0693 µM (active) | 0.411 µM (active)
11 | COc1cccc(CCCNC(=O)Cc2ccccc2CO)c1 | > 100 µM (inactive) | > 100 µM (inactive) | > 100 µM (inactive) | > 100 µM (inactive) | > 100 µM (inactive) | > 100 µM (inactive) | – | > 100 µM (inactive) | > 100 µM (inactive) | > 100 µM (inactive) | > 100 µM (inactive) | > 100 µM (inactive) | > 100 µM (inactive) | > 100 µM (inactive) | > 100 µM (inactive) | > 100 µM (inactive) | > 100 µM (inactive) | > 100 µM (inactive) | > 100 µM (inactive) | > 100 µM (inactive)
12 | CSc1ccc(/C=C2\N=C(c3ccccc3)N(c3nc4cc(Cl)c(F)cc4s3)C2=O)cc1 | > 100 µM (inactive) | 28.3 µM (inactive) | 99.5 µM (inactive) | 36.2 µM (inactive) | 38.3 µM (inactive) | 20.3 µM (inactive) | – | 58.3 µM (inactive) | 24.7 µM (inactive) | 51.2 µM (inactive) | 26.3 µM (inactive) | 28.4 µM (inactive) | 64.3 µM (inactive) | 25 µM (inactive) | > 100 µM (inactive) | 43.6 µM (inactive) | 32.8 µM (inactive) | 50 µM (inactive) | 39.9 µM (inactive) | 35.2 µM (inactive)
13 | CC(C)[C@H]1CO[C@]2(C)[C@@H]3CN(Cc4ccccc4)C[C@@H]3C(=O)N12 | > 100 µM (inactive) | > 100 µM (inactive) | – | > 100 µM (inactive) | > 100 µM (inactive) | – | > 100 µM (inactive) | > 100 µM (inactive) | > 100 µM (inactive) | > 100 µM (inactive) | > 100 µM (inactive) | > 100 µM (inactive) | > 100 µM (inactive) | > 100 µM (inactive) | > 100 µM (inactive) | > 100 µM (inactive) | – | – | – | –
14 | CN(C)/N=N/c1nc2c(c(=O)n(C)c(=O)n2C)n1CC1CO1 (configuration not stated) | 13.9 µM (inactive) | 22.4 µM (inactive) | 12.7 µM (inactive) | 11.7 µM (inactive) | 4 µM (inactive) | 8.43 µM (inactive) | – | 15.8 µM (inactive) | 15.7 µM (inactive) | 17 µM (inactive) | 7.1 µM (inactive) | 12.9 µM (inactive) | 17.2 µM (inactive) | 11.7 µM (inactive) | 11.9 µM (inactive) | 12.4 µM (inactive) | 17.1 µM (inactive) | 14.4 µM (inactive) | 5.38 µM (inactive) | 20.7 µM (inactive)
15 | CC1=CC(C)(c2c[nH]c3ccccc23)CC(C)(C)c2c1[nH]c1ccccc21 (configuration not stated) | – | 15.6 µM (inactive) | 14.5 µM (inactive) | 11.9 µM (inactive) | 6.46 µM (inactive) | 15.2 µM (inactive) | 30.1 µM (inactive) | 17.9 µM (inactive) | 13.4 µM (inactive) | 14.5 µM (inactive) | 43.2 µM (inactive) | – | 28.6 µM (inactive) | 26.7 µM (inactive) | 43.1 µM (inactive) | 15.2 µM (inactive) | – | – | – | –
16 | Oc1ccccc1-c1nn2c(CCCCCCCCc3nnc4sc(-c5ccccc5O)nn34)nnc2s1 | 5.11 µM (inactive) | 22.4 µM (inactive) | 27.2 µM (inactive) | 10.5 µM (inactive) | 1.03 µM (active) | 9.46 µM (inactive) | – | 11.2 µM (inactive) | 14.1 µM (inactive) | 9.98 µM (inactive) | 8.53 µM (inactive) | 18.3 µM (inactive) | 15.2 µM (inactive) | 5.94 µM (inactive) | 37.2 µM (inactive) | 7.06 µM (inactive) | 24.2 µM (inactive) | 18 µM (inactive) | 11.1 µM (inactive) | 26.5 µM (inactive)
17 | COc1ccc(/C=C(\NC(=O)c2ccccc2)c2nc3ccccc3[nH]2)cc1 | 36.9 µM (inactive) | 35.9 µM (inactive) | 41.9 µM (inactive) | 35.2 µM (inactive) | – | – | 27.4 µM (inactive) | 33.4 µM (inactive) | 17.3 µM (inactive) | – | 39.1 µM (inactive) | 14.8 µM (inactive) | 45.1 µM (inactive) | 29.4 µM (inactive) | – | 24 µM (inactive) | – | – | – | –
